Measured values reported in patent US8877944B2, “3-oxo-2,3-dihydro-1H-isoindole-4-carboxamides as PARP inhibitors” (Nerviano Medical Sciences S.R.L., priority 2009, dated 2014).
Read-outs that look alike come from different tables or passages of the source.

Assays:
[1] = test system: ovarian cancer with confirmed BRCA-1 mutations; conditions: ovarian cancer patients with confirmed BRCA-1 mutations, monotherapy; cited from earlier work
PARP-1 FL = PARP-1 FL (Homo sapiens (Human), UniProt P09874); test: Fluorescence polarization probe displacement assay, PARP-1; type: binding; conditions: for DC50: half maximal displacement concentration
PARP-1 FL, sequence (P09874 whole entry): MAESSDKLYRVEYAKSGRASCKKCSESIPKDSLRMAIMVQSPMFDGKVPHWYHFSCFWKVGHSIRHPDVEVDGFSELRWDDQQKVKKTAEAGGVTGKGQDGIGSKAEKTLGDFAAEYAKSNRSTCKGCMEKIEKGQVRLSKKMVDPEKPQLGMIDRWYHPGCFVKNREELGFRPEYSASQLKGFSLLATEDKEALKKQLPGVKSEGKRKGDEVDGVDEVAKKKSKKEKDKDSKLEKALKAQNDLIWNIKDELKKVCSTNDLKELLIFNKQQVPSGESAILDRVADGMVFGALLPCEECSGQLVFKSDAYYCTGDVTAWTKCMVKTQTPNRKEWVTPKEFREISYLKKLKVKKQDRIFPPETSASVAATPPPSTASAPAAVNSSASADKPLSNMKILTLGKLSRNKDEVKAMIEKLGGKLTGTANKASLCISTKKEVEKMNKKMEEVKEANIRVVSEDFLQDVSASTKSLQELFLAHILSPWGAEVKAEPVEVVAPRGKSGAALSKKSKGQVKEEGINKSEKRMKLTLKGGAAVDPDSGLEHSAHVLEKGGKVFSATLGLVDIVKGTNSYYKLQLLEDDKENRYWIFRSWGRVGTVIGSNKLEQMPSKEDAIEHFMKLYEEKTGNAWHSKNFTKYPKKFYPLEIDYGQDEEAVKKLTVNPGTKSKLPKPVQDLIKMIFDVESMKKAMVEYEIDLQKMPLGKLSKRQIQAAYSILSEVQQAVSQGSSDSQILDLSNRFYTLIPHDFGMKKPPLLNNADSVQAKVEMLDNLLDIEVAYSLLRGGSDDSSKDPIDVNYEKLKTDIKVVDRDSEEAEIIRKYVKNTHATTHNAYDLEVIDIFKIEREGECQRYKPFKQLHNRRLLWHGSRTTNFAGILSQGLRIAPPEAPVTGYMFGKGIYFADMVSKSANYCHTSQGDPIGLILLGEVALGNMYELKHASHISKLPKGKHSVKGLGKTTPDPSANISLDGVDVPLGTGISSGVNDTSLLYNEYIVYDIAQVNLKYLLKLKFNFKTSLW
Description: (§1) Affinity evaluation of the tested compounds and their selectivity with respect to the different PARP isoforms of interest was assessed in a displacement assay.
(§2) The polarization signal can be measured, e.g., by a plate reader such as the Saphire2 (Tecan). The displacement ability of the test compound is in correlation with the compound affinity for the NAD pocket of the enzyme.
(§3) The assay performances were then evaluated (Z′ factor) as well as the displacement of the probe by its scaffold and known commercially available PARP inhibitors. In all of the experiments, the polarization signal was measured using a Saphire2 plate reader (Tecan). Data analysis was performed using Dynafit software. In particular, titration data were fitted to the following equilibria: Enzyme+probe <==> Complex Enzyme-probe, while displacement data were fitted to the following equilibria: Enzyme+probe <==> Complex Enzyme-probe, Enzyme+Compound <==> Complex Enzyme-Compound, whereby binding of probe and compound on the enzyme are mutually exclusive (pure competitive mechanism). Displacement data were also fitted using Excell spreadsheet (Microsoft Inc. Seattle, USA) to a four parameter logistic model (4PL), or Hill-Slope model to calculate DC50s where the DC50 value represents the compound concentration at which the polarization signal is diminished by 50% compared to untreated controls.
(§4) KD values, are the average of three independent experiments.

PARP-2 FL = PARP-2 FL (Homo sapiens (Human), UniProt Q9UGN5); test: Fluorescence polarization probe displacement assay, PARP-2; type: binding
PARP-2 FL, sequence (Q9UGN5 whole entry): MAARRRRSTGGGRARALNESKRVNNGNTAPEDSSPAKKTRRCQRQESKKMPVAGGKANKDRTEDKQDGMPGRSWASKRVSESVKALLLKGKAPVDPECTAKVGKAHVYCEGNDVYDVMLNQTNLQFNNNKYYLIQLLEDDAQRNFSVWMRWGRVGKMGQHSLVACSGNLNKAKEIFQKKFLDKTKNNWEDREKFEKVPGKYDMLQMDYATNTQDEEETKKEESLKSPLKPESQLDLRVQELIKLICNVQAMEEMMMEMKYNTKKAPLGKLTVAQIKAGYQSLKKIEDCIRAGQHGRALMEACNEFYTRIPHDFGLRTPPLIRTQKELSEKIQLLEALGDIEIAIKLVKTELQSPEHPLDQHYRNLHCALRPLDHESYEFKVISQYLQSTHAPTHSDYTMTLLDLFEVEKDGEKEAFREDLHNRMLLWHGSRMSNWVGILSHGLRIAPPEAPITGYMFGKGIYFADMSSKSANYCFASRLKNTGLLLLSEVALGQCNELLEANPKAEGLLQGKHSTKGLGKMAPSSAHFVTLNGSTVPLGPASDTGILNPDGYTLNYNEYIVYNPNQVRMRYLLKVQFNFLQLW
Description: as §1, §2, §3, §4

[2] = test system: PAR formation in HeLa cells; test: Cellular PAR assay: inhibition of hydrogen peroxide induced PAR formation; conditions: Homo sapiens, read-out: PAR assay IC50
Description: Compounds potencies were evaluated by measuring the inhibition of poly (ADP-ribose) (PAR) chains formation as a marker for PARP-1 inhibition.
Cellular activity of PARP-1 inhibitors was assessed by measuring the inhibition of the hydrogen peroxide induced PAR formation in HeLa cells (ECACC). Cellular PAR levels were measured by immunocytochemistry, and quantified using an ArrayScan vTi instrument (Cellomics Thermo Scientific).
Test compounds were then added at the required concentration for 30′. […] Concentration curves were prepared in MEM/10% FCS from compound stocks in DMSO, and final DMSO concentration was 0.002% (v/v). Duplicate wells for each concentration point were prepared with a typical highest compound concentration of 20 μM and serial dilution 1:3. […] Non-specific binding sites were blocked by incubating wells for 30 min in PBS containing 5% (w/v) FBS 0.05% tween20. […] After washing further 3 times in PBS, cellular PAR immunoreactivity was assessed using the ArrayScan vTi instrument, with a Zeiss 10×0.5 N.A. objective, and applying the Cytotoxicity.V3 algorithm (Cellomics/Thermo Fisher) with a XF100 filter. At least 10 fields, corresponding to at least 900 cells, were read for each well.
The following formula is used: IC50=Bottom+(Top-Bottom)/(1+10^((LogEC50−X))); X is the logarithm of concentration. IC50 is the response; IC50 starts at Bottom and goes to Top with a sigmoid shape.

PARP-3 FL = PARP-3 FL (Homo sapiens (Human), UniProt Q9Y6F1); test: Fluorescence polarization probe displacement assay, PARP-3; type: binding; conditions: half maximal displacement concentration
PARP-3 FL, sequence (Q9Y6F1 whole entry): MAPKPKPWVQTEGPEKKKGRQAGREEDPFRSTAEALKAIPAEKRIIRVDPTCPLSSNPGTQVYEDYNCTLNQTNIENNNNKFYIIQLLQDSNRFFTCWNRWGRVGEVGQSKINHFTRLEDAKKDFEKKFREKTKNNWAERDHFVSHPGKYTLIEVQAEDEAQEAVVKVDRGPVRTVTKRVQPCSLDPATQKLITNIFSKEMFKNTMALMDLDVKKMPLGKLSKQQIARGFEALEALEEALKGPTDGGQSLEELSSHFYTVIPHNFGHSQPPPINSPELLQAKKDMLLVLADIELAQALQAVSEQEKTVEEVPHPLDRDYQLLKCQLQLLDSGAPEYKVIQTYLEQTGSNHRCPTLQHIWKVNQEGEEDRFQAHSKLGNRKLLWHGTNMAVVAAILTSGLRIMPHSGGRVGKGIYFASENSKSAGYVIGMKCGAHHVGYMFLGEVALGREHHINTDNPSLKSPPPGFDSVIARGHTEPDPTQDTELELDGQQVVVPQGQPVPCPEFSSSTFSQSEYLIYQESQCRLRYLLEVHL
Description: as §1, §2, §3, §4

[3] = Pharmacokinetics and oral bioavailability in the mouse; conditions: for C-max (oral): 10 mg/kg single oral dose, mean value; for F on AUC / Vd / clearance / AUC / half-life: 10 mg/kg; for F on AUC: oral vs IV dose-normalized AUC; for Vd / clearance / AUC / half-life: male, Balb Nu/Nu, plasma; for Vd / clearance: iv; for AUC / half-life: po
Description: The compounds were formulated in 10% tween 80/dextrose for intravenous bolus administration while oral administrations were performed using the compounds formulated in 0.5% methylcellulose. A single administration at the dose of 10 mg/kg was given and three male animals for each route were used. […] Plasma samples were prepared by plasma proteins precipitation adding 200 μL of methanol to 10 μL of plasma in a 96 well plate. […] The supernatant was considered as final extract and injected onto the LC-MS-MS system (HPLC system: Hewlett Packard 1100 series using Atlantis HILIC Silica 50*2.1 mm 5.0 μm analytical column; MS instrument: Perkin Elmer SCIEX API 2000 and ionization performed with Turbo Ion Spray in positive ion mode). Lower limit of quantification is 5.0 ng/mL, upper limit of quantification is 10000 ng/mL. […] Non-compartmental method (linear trapezoidal rule and linear regression analysis of natural log-transformed plasma concentrations vs. time data) was used. After intravenous dosing, C0 was set equal to C0.083 Absolute bioavailability (F) was calculated from the ratio of average oral to IV (intravenous) dose-normalized plasma AUC (area under curve) values.

[4] = test system: Capan-1 human pancreatic cancer tumors; test: In vivo efficacy, single agent, Capan-1 BRCA-2 mutated mouse model
Description: Fragments of Capan-1 human pancreatic cancer tumors were implanted subcutaneously. Mice bearing a palpable tumor (100-200 mm^3) were selected and randomized into control and treated groups. Each group included seven animals. The treatment started one day after randomization. Compound of formula (I) was administered by oral route as a methocel suspension at the indicated doses and times. Tumor dimension was measured regularly by calipers during the experiments and tumor mass was calculated as described in Simeoni M. et al., Cancer Res 64, 1094-1101 (2004).

[5] = compound P3 as the probe, 100 nM PARP-1
[6] = read-out: PARP-2 DC50; half maximal displacement concentration
[7] = half maximal displacement concentration; read-out: PARP-2 DC50
[8] = compound P1 as the probe, 250 nM PARP-1
[9] = 100 mg/kg oral, days 1-14 daily
[10] = 100 mg/kg oral, days 1-6 twice a day
[11] = 100 mg/kg oral, days 1-15 daily

Row | Compound | Kd (PARP-1 FL; [5]) [nM] | DC50 (PARP-1 FL) [nM] | DC50 (PARP-2 FL; [6]) [nM] | IC50 [2] [nM] | DC50 (PARP-3 FL) [nM] | AUC [3] [µM·h] | other results
1 | O=C(c1cc(Cc2n[nH]c(=O)c3ccccc23)ccc1F)N1CCN(C(=O)C2CC2)CC1 [AZD2281] | – | – | – | – | – | – | partial responses [1]: 4 out of 10
2 | CO[C@H]1CC[C@H](N2CCC(N3Cc4cccc(C(N)=O)c4C3=O)CC2)CC1 [Compound 2, 2-[1-(Trans-4-methoxycyclohexyl)piperidin-4-yl]-3-oxo-2,3-dihydro-1H-isoindole-4-carboxamide] | 25 | < 250 | > 10000 | 160 | 6000 | – | –
3 | NC(=O)c1cccc2c1C(=O)N(C1CCN([C@H]3CC[C@@H](CO)CC3)CC1)C2 [Compound 3, 2-{1-[Cis-4-(hydroxymethyl)cyclohexyl]piperidin-4-yl}-3-oxo-2,3-dihydro-1H-isoindole-4-carboxamide] | 13 | < 250 | – | 140 | 2300 | 2.39 | DC50 (PARP-2 FL; [7]): > 10000 nM; C-max (oral) [3]: 1.17 µM; F on AUC [3]: 82.5%; Vd [3]: 4.75 L/kg; clearance [3]: 104 mL/min/kg; half-life [3]: 1.75 h
4 | NC(=O)c1cccc2c1C(=O)N(C1CCN([C@H]3CC[C@H](CO)CC3)CC1)C2 [Compound 4, 2-{1-[Trans-4-(hydroxymethyl)cyclohexyl]piperidin-4-yl}-3-oxo-2,3-dihydro-1H-isoindole-4-carboxamide] | 20 | < 250 | – | 90 | 4900 | 1.3 | DC50 (PARP-2 FL; [7]): > 10000 nM; C-max (oral) [3]: 0.4 µM; F on AUC [3]: 55%; Vd [3]: 5.95 L/kg; clearance [3]: 135 mL/min/kg; half-life [3]: 1.42 h
5 | NC(=O)c1cccc2c1C(=O)N(C1CCN(C3CCC(F)(F)CC3)CC1)C2 [Compound 7, 2-[1-(4,4-Difluorocyclohexyl)-piperidin-4-yl]-3-oxo-2,3-dihydro-1H-isoindole-4-carboxylic acid amide] | – | – | – | – | 3540 | – | Max TGI (%) ([4]; 80 mg/kg oral, days 1-8 daily): 47%; Toxicity (body weight reduction, mice out of 7) ([4]; 80 mg/kg oral, days 1-8 daily): 0/7
6 | NC(=O)c1cccc2c1C(=O)N(C1CCN(C3CCC4(CC3)OCCO4)CC1)C2 [Compound 8, 2-[1-(1,4-Dioxaspiro[4.5]dec-8-yl)piperidin-4-yl]-3-oxo-2,3-dihydro-1H-isoindole-4-carboxamide] | – | 280 | > 10000 | 530 | > 10000 | – | Kd (PARP-1 FL; [8]): 130 nM
7 | NC(=O)c1cccc2c1C(=O)N(C1CCN(Cc3ccc4[nH]ccc4c3)CC1)C2 [Compound 29, 2-[1-(1H-indol-5-ylmethyl)piperidin-4-yl]-3-oxo-2,3-dihydro-1H-isoindole-4-carboxamide] | – | – | – | – | – | – | Max TGI (%) [4, 9]: 38%; Toxicity (body weight reduction, mice out of 7) [4, 9]: 0/7
8 | CC(C)n1cc(CN2CCC(N3Cc4cccc(C(N)=O)c4C3=O)CC2)c2ccccc21 [Compound 32, 3-oxo-2-(1-{[1-(propan-2-yl)-1H-indol-3-yl]methyl}piperidin-4-yl)-2,3-dihydro-1H-isoindole-4-carboxamide] | 40 | < 250 | – | 380 | 270 | 1.48 | Max TGI (%) [4, 10]: 32%; Toxicity (body weight reduction, mice out of 7) [4, 10]: 0/7; DC50 (PARP-2 FL; [7]): > 10000 nM; C-max (oral) [3]: 0.43 µM; F on AUC [3]: 24%; Vd [3]: 2.78 L/kg; clearance [3]: 59.5 mL/min/kg; half-life [3]: 1.84 h
9 | NC(=O)c1cc(F)cc2c1C(=O)N(C1CCN(C3CCC(F)(F)CC3)CC1)C2 [Compound 99, 2-[1-(4,4-Difluorocyclohexyl)-piperidin-4-yl]-6-fluoro-3-oxo-2,3-dihydro-1H-isoindole-4-carboxamide] | – | – | – | – | 1580 | 19.6 | Max TGI (%) [4, 11]: 55%; Toxicity (body weight reduction, mice out of 7) [4, 11]: 0/7
10 | NC(=O)c1cc(F)cc2c1C(=O)N(C1CCN(C3CCC(=O)CC3)CC1)C2 [Compound 103, 6-Fluoro-3-oxo-2-[1-(4-oxocyclohexyl)piperidin-4-yl]-2,3-dihydro-1H-isoindole-4-carboxamide] | < 10 | < 250 | 3770 | 80 | 4670 | – | –
11 | COCCN1CCC(N2Cc3cccc(C(N)=O)c3C2=O)CC1 [Compound 106, 2-[1-(2-Methoxyethyl)piperidin-4-yl]-3-oxo-2,3-dihydro-1H-isoindole-4-carboxamide] | – | 280 | > 10000 | 410 | 2550 | – | Kd (PARP-1 FL; [8]): 110 nM
